Measured values published in patent publication US4595678A, “N-substituted pseudo-aminosugars and pharmaceutical compositions containing same” (Takeda Chemical Industries, Ltd., priority 1982, dated 1986).
Like-named read-outs stand apart in the source and are kept apart here.

Legend:
[1] = test system: α-glucoside hydrolase (α-glucosidase); conditions: earlier reports; cited from earlier work
[2] = test system: α-glucoside hydrolase (α-glucosidase); test: α-glucoside hydrolase / α-glucosidase inhibitory activity, in words; type: biochemical; conditions: found by the inventors

SMILES	α-glucoside hydrolase suppressing / α-glucosidase inhibitory activity [1]	α-glucoside hydrolase suppressing / α-glucosidase inhibitory activity [2]
C[C@H]1O[C@H](O[C@@H]2[C@H](O)[C@H](O)[C@@H](O[C@@H]3[C@H](O)[C@@H](O)[C@@H](O[C@@H]4[C@H](O)[C@H](O)[C@@H](O[C@H]5O[C@@H](CO)[C@H](O)[C@H](O)[C@H]5O)O[C@@H]4CO)O[C@@H]3CO)O[C@H]2CO)[C@H](O)[C@@H](O)[C@@H]1N[C@H]1C=C(CO)[C@@H](O[C@H]2O[C@H](CO)[C@H](O[C@H]3O[C@H](C)[C@@H](N[C@H]4C=C(CO)[C@@H](O)[C@H](O)[C@H]4O)[C@H](O)[C@H]3O)[C@H](O)[C@H]2O)[C@H](O)[C@H]1O (stereo in doubt) [Trestatin A]	far from being satisfactory	–
C[C@H]1O[C@H](O[C@@H]2[C@H](O)[C@@H](O)[C@@H](O[C@@H]3[C@H](O)[C@@H](O)[C@@H](O[C@@H]4[C@H](O)[C@H](O)[C@@H](O[C@H]5O[C@H](CO)[C@H](O)[C@H](O)[C@H]5O)O[C@@H]4CO)O[C@@H]3CO)O[C@H]2CO)[C@@H](O)[C@@H](O)[C@@H]1N[C@@H]1C=C(CO)[C@@H](O)[C@@H](O)[C@@H]1O (stereo in doubt) [Trestatin B]	far from being satisfactory	–
C[C@H]1O[C@H](O[C@H]2[C@H](O)[C@@H](O)[C@@H](O[C@H]3[C@H](O)[C@@H](O)C(O)O[C@@H]3CO)O[C@@H]2CO)[C@H](O)[C@@H](O)[C@@H]1N[C@H]1C=C(CO)[C@@H](O)[C@H](O)[C@H]1O (stereo partly shown) [Acarbose]	far from being satisfactory	–
C[C@H]1O[C@H](O[C@H]2[C@H](O)[C@@H](O)[C@@H](O[C@H]3[C@H](O)[C@@H](O)[C@@H](O[C@H]4[C@H](O)[C@@H](O)[C@@H](O[C@H]5O[C@H](CO)[C@@H](O)[C@H](O)[C@H]5O)O[C@@H]4CO)O[C@@H]3CO)O[C@@H]2CO)[C@H](O)[C@@H](O)[C@@H]1N[C@H]1C=C(CO)[C@@H](O[C@H]2O[C@H](CO)[C@@H](O[C@H]3O[C@H](C)[C@@H](NC4C=C(CO)[C@@H](O[C@H]5O[C@H](CO)[C@@H](O[C@H]6O[C@H](C)[C@@H](NC7C=C(CO)[C@@H](O)[C@H](O)[C@H]7O)[C@H](O)[C@H]6O)[C@H](O)[C@H]5O)[C@H](O)[C@H]4O)[C@H](O)[C@H]3O)[C@H](O)[C@H]2O)[C@H](O)[C@H]1O (stereo partly shown) [Trestatin C]	far from being satisfactory	–
N[C@H]1C[C@H](CO)[C@@H](O)[C@H](O)[C@H]1O [validamine]	–	possesses a highly valuable action of suppressing the function of α-glucoside hydrolase
N[C@H]1C=C(CO)[C@@H](O)[C@H](O)[C@H]1O [valienamine]	possesses an action of suppressing the function of α-glucoside hydrolase	–
N[C@H]1C[C@](O)(CO)[C@@H](O)[C@H](O)[C@H]1O [valiolamine, 1L(1S)-(1(OH),2,4,5/1,3)-5-amino-1-hydroxymethyl-1,2,3,4-cyclohexanetetraol]	possesses α-glucosidase inhibitory activity	–
